This passage reports IC50 results from ChEMBL document CHEMBL1201861, “Genomics of Drug Sensitity in Cancer screening data, Wellcome Trust Sanger Institute”.

Holding throughout (assay): cells
The subject of one experiment is JAR. It counts as functional, cell-based, Homo sapiens. The note with it: Homo sapiens, JAR.
The subject of another experiment is HD-MY-Z. The format is functional, cell-based, Homo sapiens. The settings on record: Homo sapiens, HD-MY-Z.
Another experiment deals with MEG-01. It counts as functional, cell-based. The note with it: Homo sapiens.
A further experiment concerns NOS-1. It counts as functional, cell-based, Homo sapiens. The settings on record: Homo sapiens, NOS-1.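 Note: growth inhibition of the human NOS-1 cell line, read out with a cell viability assay.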
For the next experiment, the system named is VA-ES-BJ. It counts as functional, cell-based, Homo sapiens. The note with it: Homo sapiens, VA-ES-BJ.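 Note: growth inhibition of the VA-ES-BJ cell line, read out by a cell viability assay.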
The test system of the next experiment is SF-268. The format is functional, cell-based, Homo sapiens. The settings on record: Homo sapiens, SF-268.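 Note: growth inhibition of SF-268 cells determined with a cell viability assay.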
The subject of the next experiment is LXF-289 cell line. It counts as functional, cell-based, Homo sapiens. The settings on record: Homo sapiens, LXF-289.
The next experiment deals with LU-139. The format is functional, cell-based. The note with it: Homo sapiens.
For another experiment, the system named is SNU1. The format is functional, cell-based. The settings on record: Homo sapiens.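 Note: growth inhibition of human NCI-SNU-1 cells, measured with a cell viability assay.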
Another experiment deals with CW-2. The format is functional, cell-based, Homo sapiens. The note with it: Homo sapiens, CW-2.
For the next experiment, the system named is ES4. The format is functional, cell-based, Homo sapiens. The settings on record: Homo sapiens, ES4.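 Note: growth inhibition of human ES4 cells, read out by a cell viability assay.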
For the next experiment, the system named is Ramos-2G6-4C10. It counts as functional, cell-based. The settings on record: Homo sapiens.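 Note: growth inhibition of the cell line, measured by a cell viability read-out.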
The next experiment concerns NCI-H446. The format is functional, cell-based. The settings on record: Homo sapiens.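 Note: growth inhibition of NCI-H446 cells determined by a cell viability assay.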
The test system of another experiment is COLO-684. It counts as functional, cell-based. The note with it: Homo sapiens.
A further experiment deals with RPMI-8226. It counts as functional, cell-based. The settings on record: Homo sapiens.
For a further experiment, the system named is HCC2218. It counts as functional, cell-based. The settings on record: Homo sapiens.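 Note: cell viability assay read-out, with IC50 given as the concentration that inhibits growth of the cell line.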
The next experiment concerns MOLT-4. It counts as functional, cell-based. The settings on record: Homo sapiens.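 Note: growth inhibition of MOLT-4 cells, determined with a cell viability readout.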
Another experiment concerns SNU-5. The format is functional, cell-based. The note with it: Homo sapiens.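 Note: cell viability readout used to measure growth inhibition in human NCI-SNU-5 cells.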
Another experiment has as its system MFH-ino. The format is functional, cell-based. The note with it: Homo sapiens.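 Note: growth inhibition of human MFH-ino cells, read out by a cell viability assay.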
The next experiment concerns CP66-MEL. It counts as functional, cell-based, Homo sapiens. The note with it: Homo sapiens, CP66-MEL.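 Note: growth inhibition of CP66-MEL cells determined in a cell viability assay.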
In a further experiment the test system is NCI-H510A. The format is functional, cell-based. The note with it: Homo sapiens.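 Note: growth inhibition of NCI-H510A cells, read out with a cell viability assay.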

The structures appear in SMILES notation.

Description for COLO-684: SANGER: Inhibition of human COLO-684 cell growth in a cell viability assay.
Description for CP66-MEL: SANGER: Inhibition of human CP66-MEL cell growth in a cell viability assay.
Description for CW-2: SANGER: Inhibition of human CW-2 cell growth in a cell viability assay.
Description for ES4: SANGER: Inhibition of human ES4 cell growth in a cell viability assay.
Description for HCC2218: SANGER: Inhibition of human HCC2218 cell growth in a cell viability assay.
Description for HD-MY-Z: SANGER: Inhibition of human HD-MY-Z cell growth in a cell viability assay.
Description for LU-139: SANGER: Inhibition of human LU-139 cell growth in a cell viability assay.
Description for LXF-289 cell line: SANGER: Inhibition of human LXF-289 cell growth in a cell viability assay.
Description for MEG-01: SANGER: Inhibition of human MEG-01 cell growth in a cell viability assay.
Description for MFH-ino: SANGER: Inhibition of human MFH-ino cell growth in a cell viability assay.
Description for MOLT-4: SANGER: Inhibition of human MOLT-4 cell growth in a cell viability assay.
Description for NCI-H446: SANGER: Inhibition of human NCI-H446 cell growth in a cell viability assay.
Description for NOS-1: SANGER: Inhibition of human NOS-1 cell growth in a cell viability assay.
Description for RPMI-8226: SANGER: Inhibition of human RPMI-8226 cell growth in a cell viability assay.
Description for Ramos-2G6-4C10: SANGER: Inhibition of human Ramos-2G6-4C10 cell growth in a cell viability assay.
Description for SNU-5: SANGER: Inhibition of human NCI-SNU-5 cell growth in a cell viability assay.
Description for SNU1: SANGER: Inhibition of human NCI-SNU-1 cell growth in a cell viability assay.
Description for VA-ES-BJ: SANGER: Inhibition of human VA-ES-BJ cell growth in a cell viability assay.

With `CN1CCN(CCOc2cc(OC3CCOCC3)c3c(Nc4c(Cl)ccc5c4OCO5)ncnc3c2)CC1` [SARACATINIB], the IC50 was greater than 2000 nM in the experiment on JAR; greater than 2000 nM in the experiment with HD-MY-Z; 237 nM in the experiment on MEG-01; 605 nM in the experiment with NOS-1; greater than 2000 nM with VA-ES-BJ; greater than 2000 nM in the experiment on SF-268. The IC50 with LXF-289 cell line, with LU-139, with SNU1, in the experiment on CW-2, in the experiment on ES4 and with Ramos-2G6-4C10 was greater than 2000 nM in each case. Besides, the IC50 in the experiment on NCI-H446, with COLO-684, in the experiment with RPMI-8226, in the experiment on HCC2218, with MOLT-4 and in the experiment on SNU-5 was greater than 2000 nM each time. For the same molecule, the 50% inhibitory concentration (IC50) is 1780 nM in the experiment on MFH-ino, greater than 2000 nM in the experiment with CP66-MEL and greater than 2000 nM in the experiment on NCI-H510A.

`CO[C@H]1C[C@@H]2CC[C@@H](C)[C@@](O)(O2)C(=O)C(=O)N2CCCC[C@H]2C(=O)O[C@H]([C@H](C)C[C@@H]2CC[C@@H](O)[C@H](OC)C2)CC(=O)[C@H](C)/C=C(\C)[C@@H](O)[C@@H](OC)C(=O)[C@H](C)C[C@H](C)/C=C/C=C/C=C/1C` [SIROLIMUS]: the IC50 in the experiment with JAR was greater than 100 nM; in the experiment on HD-MY-Z, greater than 100 nM; in the experiment with MEG-01, greater than 100 nM; in the experiment with NOS-1, 0.871 nM; in the experiment on VA-ES-BJ it was 0.723 nM; with SF-268 it was greater than 100 nM. The IC50 in the experiment on LXF-289 cell line is greater than 100 nM; in the experiment on LU-139, greater than 100 nM; in the experiment with SNU1, greater than 100 nM; in the experiment with CW-2, greater than 100 nM; with ES4, less than 0.391 nM; with Ramos-2G6-4C10, 1.46 nM. The IC50 in the experiment on NCI-H446 is greater than 100 nM; with COLO-684, 39.8 nM; in the experiment on RPMI-8226 it was 1.19 nM; with HCC2218, greater than 100 nM; in the experiment with MOLT-4 it was 96.8 nM; in the experiment on SNU-5, greater than 100 nM. Further, the IC50 in the experiment with MFH-ino, in the experiment on CP66-MEL and in the experiment on NCI-H510A was greater than 100 nM each time.

On to `CCC(=O)N1CCN(c2ccc(-n3c(=O)ccc4cnc5ccc(-c6cnc7ccccc7c6)cc5c43)cc2C(F)(F)F)CC1` [TORIN1], for which the IC50 with JAR is 116 nM; in the experiment with HD-MY-Z it was 24.3 nM; in the experiment with MEG-01 it was 186 nM; with NOS-1, 2.42 nM; in the experiment on VA-ES-BJ it was 9.84 nM; with SF-268, 98.2 nM. In addition, the IC50 in the experiment on LXF-289 cell line was 28.7 nM; in the experiment on LU-139 it was 130 nM; with SNU1 it was greater than 1200 nM; with CW-2, greater than 1200 nM; in the experiment with ES4, 83 nM; with Ramos-2G6-4C10, 27.5 nM. Also, the IC50 in the experiment with NCI-H446 worked out at 169 nM; in the experiment with COLO-684, 45.6 nM; in the experiment with RPMI-8226, 6.51 nM; in the experiment on HCC2218, 472 nM; in the experiment on MOLT-4 it was 66.1 nM; in the experiment with SNU-5 it was 136 nM. Further, the IC50 with MFH-ino is 28.1 nM; in the experiment on CP66-MEL, 314 nM; with NCI-H510A, 772 nM.

As for `Cc1cc(Nc2cc(N3CCN(C)CC3)nc(Sc3ccc(NC(=O)C4CC4)cc3)n2)n[nH]1` [TOZASERTIB], the IC50 is greater than 2000 nM in the experiment with JAR; greater than 2000 nM in the experiment with HD-MY-Z; 278 nM with MEG-01; greater than 2000 nM with NOS-1; 201 nM in the experiment with VA-ES-BJ; greater than 2000 nM in the experiment on SF-268. For the same molecule, the IC50 was 404 nM in the experiment with LXF-289 cell line; greater than 2000 nM in the experiment with LU-139; greater than 2000 nM in the experiment with SNU1; greater than 2000 nM in the experiment with CW-2; 911 nM in the experiment with ES4; greater than 2000 nM in the experiment with Ramos-2G6-4C10. Besides, the IC50 with NCI-H446 is greater than 2000 nM; in the experiment on COLO-684 it was greater than 2000 nM; with RPMI-8226 it was greater than 2000 nM; in the experiment on HCC2218, greater than 2000 nM; in the experiment with MOLT-4, 233 nM; in the experiment with SNU-5 it was greater than 2000 nM. Besides, the results for the IC50 in the experiment with MFH-ino, with CP66-MEL and with NCI-H510A were 9.9 nM, greater than 2000 nM and 438 nM, respectively.
